Source: patent US20180243363A1, “NEUROKININ 1 RECEPTOR AGONIST MEDIATED PROTECTION OF THE EYE” (WAYNE STATE UNIVERSITY, priority 2016, published 2018)
Where a SMILES comes first, the peptide text is derived from it. [ ]: non-standard residue; d: D form. NMeL = CN[C@@H](CC(C)C)C(=O)O; Ava = NCCCCC(=O)O

What was measured:
[1] = molecular target: T1, NK1R (Mus musculus, UniProt P30548); test: Phenol red thread tear volume after ocular HSV-1 infection, GR73632 I.P. treatment; format: in vivo, mice; parameters: from tissue; host or cells: living mice (in vivo; eye / tear read-out after systemic dosing); settings: GR73632 I.P. treated vs control treated group
T1 sequence (P30548 whole entry): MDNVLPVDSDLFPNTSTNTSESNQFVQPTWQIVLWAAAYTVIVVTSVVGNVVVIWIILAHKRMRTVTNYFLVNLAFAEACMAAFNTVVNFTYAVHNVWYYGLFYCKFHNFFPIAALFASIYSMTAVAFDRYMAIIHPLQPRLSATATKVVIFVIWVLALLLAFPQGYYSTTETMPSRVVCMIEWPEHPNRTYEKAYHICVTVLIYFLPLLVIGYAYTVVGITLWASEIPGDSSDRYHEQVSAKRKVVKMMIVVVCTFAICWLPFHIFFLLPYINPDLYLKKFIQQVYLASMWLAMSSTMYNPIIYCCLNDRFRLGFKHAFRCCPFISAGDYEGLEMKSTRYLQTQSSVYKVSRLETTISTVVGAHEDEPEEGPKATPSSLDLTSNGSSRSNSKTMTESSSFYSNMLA
Protocol: FIGS. 12A, 12B. Increased tear volume at D7 and D10 post ocular HSV-1 infection (POI) in GR73632 I.P treated eyes compared to the control treated group. Phenol Red thread (yellow color) images showing the thread wetness (red color) measured in mm.
Corneal HSV-1 infection. To carry out ocular HSV-1 infection, mice were first anesthetized by intra-peritoneal injection of Ketamine (33 mg/Kg bodyweight)+Xylazine (20 mg/Kg bodyweight) in 0.2 ml PBS. The cornea was scarified with trephine (Fine Science Tools, Foster City, Calif.) while twisting three to four times over the corneal surface. 1×10^4 plaque forming units (p.f.u) of HSV-1 virus were then topically applied with a pipette to the eye in 3 μL of 1×PBS followed by gentle massage of the eyelids.
(§1) Phenol red thread tear test. To measure the tear levels in the eyes of unmanipulated B6 and NK1R^−/− mice, pH indicator phenol red treated cotton threads were obtained from Zone-Quick (ZQ-1010, Showa Yakuhin Kako, Japan). The mice were restrained by holding the lose skin at the base of the neck without touching the facial skin or whiskers. The eyes were tested for tear level by placing the tip of the cotton thread on the bulbar conjunctiva of the lateral canthus for 30 seconds. A picture of the threads was taken and tear absorption was measured using a 10 cm scale.

[2] = molecular target: T1, NK1R; test: Tear film (basal tear volume) after systemic NK1R antagonist administration; format: in vivo; parameters: from tissue; host or cells: living C57Bl/6 mice (in vivo; basal tear volume); settings: systemic treatment, C57Bl/6 mice
Protocol: FIG. 14. Alteration in Tear Film after NK1R antagonist administration.
as §1

tear volume (phenol red thread wetness) ([1]; D7 post ocular HSV-1 infection, p<0.05) | tear volume (phenol red thread wetness) ([1]; D10 post ocular HSV-1 infection, p<0.01) | volume of basal tears [2] | Compound
Significant increase in tear volume | Significant increase in tear volume |  | CSCC[C@H](NC(=O)[C@H](CC(C)C)N(C)C(=O)[C@@H]1CCCN1C(=O)[C@H](Cc1ccccc1)NC(=O)[C@H](Cc1ccccc1)NC(=O)CCCCN)C(N)=O [GR73632] (H-[Ava]FFP[NMeL]M-NH2)
 |  | reduces the volume of basal tears | Spantide I
